# Source: patent publication US10385019B2, “Inhibitors of EGFR and methods of use thereof” (Dana-Farber Cancer Institute, Inc., priority 2015, dated 2019)
# Target: EGFR T790M/L858R Ba/F3 cell line (Homo sapiens, UniProt P00533, T790M/L858R, cells depend on it)
# Assay: Ba/F3 cell proliferation model
# Assay type: cell-based, murine
# Conditions: combined with cetuximab (% cetuximab, 1.0 μM drug concentration with 1.0 μg/mL cetuximab)
# Text: The selectivity between wild-type EGFR and EGFR containing one or more mutations as described herein can also be measured using cellular proliferation assays where cell proliferation is dependent on kinase activity. For example, murine Ba/F3 cells transfected with a suitable version of wild-type EGFR (such as VIII; containing a WT EGFR kinase domain), or Ba/F3 cells transfected with L858R/T790M, Del/T790M/L718Q, L858R/T790M/L718Q, L858R/T790M/C797S, Del/T790M/C797S, L858R/T790M/I941R, or Exon 19 deletion/T790M can be used.
# Cell lines are plated in media. The compounds of the present disclosure are then serially diluted and transferred to the cells. Cell viability is measured via a luminescent readout. Data is analyzed by non-linear regression curve-fitting. […]
# The EGFR mutant L858R, Del E746_A750, L858R/T790M, DelE746_A750/T790M, L858R/T790M/C797S and Del/T790M/C797S Ba/F3 cells have been previously described (Zhou, W., Ercan, D., Chen, L., Yun, C. H., Li, D., Capelletti, M., Cortot, A. B., Chirieac, L., Iacob, R. E., Padera, R., et al. “Novel mutant-selective EGFR kinase inhibitors against EGFR T790M,” Nature 462, (2009), 1070-1074). All cell lines were maintained in RPMI 1640 (Cellgro; Mediatech Inc., Herndon, Calif.) supplemented with 10% FBS 100 units/mL penicillin, 100 units/mL streptomycin, and 2 mM glutamine. L858R cells were maintained in ACL-4 media (Invitrogen, Carlsbad, Calif.) supplemented with 5% FBS, 100 units/mL penicillin, 100 units/mL streptomycin, and 2 mM glutamine. The EGFR I941R mutation was introduced via site directed mutagenesis using the Quick Change Site-Directed Mutagenesis kit (Stratagene; La Jolla, Calif.) according to the manufacturer's instructions. All constructs were confirmed by DNA sequencing. The constructs were shuttled into the retroviral vector JP 1540 using the BD Creator™ System (BD Biosciences). Ba/F3 cells were infected with retrovirus and according to standard protocols, as described previously (Zhou et al, Nature 2009). Stable clones were obtained by selection in puromycin (2 μg/ml).
# Growth and inhibition of growth was assessed by MTS assay and was performed according to previously established methods (Zhou et al., Nature 2009). The MTS assay is a colorimetric method for determining the number of viable cells that is based on the bioreduction of MTS by cells to a formazan product that is soluble in cell culture medium and can be detected spectrophotometrically. Ba/F3 cells of different EGFR genotypes were exposed to treatment for 72 hours and the number of cells used per experiment determined empirically and has been previously established (Zhou et al., Nature 2009). All experimental points were set up in six wells and all experiments were repeated at least three times. […] The curves were fitted using a non-linear regression model with a sigmoidal dose response.
# Inhibition data of an EGFR T790M/L858R Ba/F3 cell line.
# EGFR T790M/L858R Ba/F3 cell line, sequence (P00533 whole entry T790M/L858R): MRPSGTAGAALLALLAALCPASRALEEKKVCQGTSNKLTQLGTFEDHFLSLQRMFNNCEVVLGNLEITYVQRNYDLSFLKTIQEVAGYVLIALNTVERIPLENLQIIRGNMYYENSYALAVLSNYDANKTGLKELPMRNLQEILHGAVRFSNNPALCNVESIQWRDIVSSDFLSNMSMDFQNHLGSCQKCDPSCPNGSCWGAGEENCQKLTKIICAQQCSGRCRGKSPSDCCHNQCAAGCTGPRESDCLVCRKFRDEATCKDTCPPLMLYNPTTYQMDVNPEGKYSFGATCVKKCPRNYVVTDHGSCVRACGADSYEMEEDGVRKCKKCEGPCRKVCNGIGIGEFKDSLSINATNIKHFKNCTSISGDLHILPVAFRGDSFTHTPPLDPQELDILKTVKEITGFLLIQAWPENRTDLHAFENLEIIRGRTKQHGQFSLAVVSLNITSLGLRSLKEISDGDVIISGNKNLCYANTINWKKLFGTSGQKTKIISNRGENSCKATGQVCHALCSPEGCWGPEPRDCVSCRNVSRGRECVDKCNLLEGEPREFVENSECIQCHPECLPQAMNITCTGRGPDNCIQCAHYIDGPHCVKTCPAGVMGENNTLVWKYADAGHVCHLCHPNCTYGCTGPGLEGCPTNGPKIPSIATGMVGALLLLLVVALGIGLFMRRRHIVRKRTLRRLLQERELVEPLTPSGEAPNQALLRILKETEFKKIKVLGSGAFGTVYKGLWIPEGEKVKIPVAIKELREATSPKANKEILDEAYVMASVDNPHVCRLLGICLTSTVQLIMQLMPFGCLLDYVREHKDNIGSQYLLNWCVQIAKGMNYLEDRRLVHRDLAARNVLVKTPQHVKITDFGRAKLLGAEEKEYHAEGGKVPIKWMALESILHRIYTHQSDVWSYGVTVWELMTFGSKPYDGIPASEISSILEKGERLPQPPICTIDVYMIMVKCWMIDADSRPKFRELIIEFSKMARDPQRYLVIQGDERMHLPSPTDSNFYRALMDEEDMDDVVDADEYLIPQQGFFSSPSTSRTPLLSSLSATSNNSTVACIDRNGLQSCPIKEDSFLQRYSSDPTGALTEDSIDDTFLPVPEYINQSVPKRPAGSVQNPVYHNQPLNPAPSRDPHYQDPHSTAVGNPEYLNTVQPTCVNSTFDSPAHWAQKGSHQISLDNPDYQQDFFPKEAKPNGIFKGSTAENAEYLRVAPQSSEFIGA
row,Structure (SMILES),Activity (% inhibition)
1,"O=C(Nc1cnc(Br)cn1)[C@@H](c1ccccc1)N1Cc2ccccc2C1=O [Compound I-27, (R)-N-(5-bromopyrazin-2-yl)-2-(1-oxoisoindolin-2-yl)-2-phenylacetamide]",A (a % inhibition of about 75%)
2,"O=C(Nc1cc(Br)ccn1)[C@@H](c1ccccc1)N1Cc2ccccc2C1=O [Compound I-28, (R)-N-(4-bromopyridin-2-yl)-2-(1-oxoisoindolin-2-yl)-2-phenylacetamide]",A (a % inhibition of about 75%)
3,"O=C(Nc1cc(Br)ccn1)[C@H](c1ccccc1)N1Cc2ccccc2C1=O [Compound I-29, (S)-N-(4-bromopyridin-2-yl)-2-(1-oxoisoindolin-2-yl)-2-phenylacetamide]",A (a % inhibition of about 75%)
4,"O=C(Nc1cc(C(F)(F)F)n[nH]1)[C@@H](c1ccccc1)N1Cc2ccccc2C1=O [Compound I-30, (R)-2-(1-oxoisoindolin-2-yl)-2-phenyl-N-(3-(trifluoromethyl)-1H-pyrazol-5-yl)acetamide]",A (a % inhibition of about 75%)
5,"O=C(Nc1ccccn1)[C@@H](c1ccccc1)N1Cc2ccccc2C1=O [Compound I-31, (R)-2-(1-oxoisoindolin-2-yl)-2-phenyl-N-(pyridin-2-yl) acetamide]",A (a % inhibition of about 75%)
6,"O=C(Nc1nc2cccnc2s1)[C@@H](c1ccccc1)N1Cc2ccccc2C1=O [Compound I-32, (R)-2-(1-oxoisoindolin-2-yl)-2-phenyl-N-(thiazolo [5,4-b]pyridin-2-yl)acetamide]",A (a % inhibition of about 75%)
7,"O=C(Nc1ncnc2[nH]ncc12)[C@@H](c1ccccc1)N1Cc2ccccc2C1=O [Compound I-33, (R)-2-(1-oxoisoindolin-2-yl)-2-phenyl-N-(1H-pyrazolo[3,4-d]pyrimidin-4-yl)acetamide]",A (a % inhibition of about 75%)
8,"O=C(Nc1ncc[nH]1)[C@@H](c1ccccc1)N1Cc2ccccc2C1=O [Compound I-34, (R)-N-(1H-imidazol-2-yl)-2-(1-oxoisoindolin-2-yl)-2-phenylacetamide]",A (a % inhibition of about 75%)
9,"O=C(Nc1ncc[nH]1)[C@H](c1ccccc1)N1Cc2ccccc2C1=O [Compound I-35, (S)-N-(1H-imidazol-2-yl)-2-(1-oxoisoindolin-2-yl)-2-phenylacetamide]",A (a % inhibition of about 75%)
10,"O=C(Nc1nc(Br)cs1)[C@@H](c1ccccc1)N1Cc2ccccc2C1=O [Compound I-36, (R)-N-(4-bromothiazol-2-yl)-2-(1-oxoisoindolin-2-yl)-2-phenylacetamide]",A (a % inhibition of about 75%)
11,"O=C(Nc1nc(-c2ccncc2)cs1)[C@@H](c1ccccc1)N1Cc2ccccc2C1=O [Compound I-37, (R)-2-(1-oxoisoindolin-2-yl)-2-phenyl-N-(4-(pyridin-4-yl)thiazol-2-yl)acetamide]",A (a % inhibition of about 75%)
12,"Nc1cccc([C@H](C(=O)Nc2nccs2)N2Cc3ccccc3C2=O)c1 [Compound I-38, (R)-2-(3-aminophenyl)-2-(1-oxoisoindolin-2-yl)-N-(thiazol-2-yl)acetamide]",A (a % inhibition of about 75%)
13,"O=C(Nc1nccs1)[C@@H](Cc1ccccc1)N1Cc2ccccc2C1=O [Compound I-39, (R)-2-(1-oxoisoindolin-2-yl)-3-phenyl-N-(thiazol-2-yl)propanamide]",A (a % inhibition of about 75%)
14,"O=C(Nc1ncc(Br)s1)[C@@H](c1ccccc1)N1Cc2ccccc2C1=O [Compound I-40, (R)-N-(5-bromothiazol-2-yl)-2-(1-oxoisoindolin-2-yl)-2-phenylacetamide]",A (a % inhibition of about 75%)
15,"O=C(Nc1nncs1)[C@@H](c1ccccc1)N1Cc2ccccc2C1=O [Compound I-41, (R)-2-(1-oxoisoindolin-2-yl)-2-phenyl-N-(1,3,4-thiadiazol-2-yl)acetamide]",A (a % inhibition of about 75%)
16,"O=C(Nc1nncs1)[C@H](c1ccccc1)N1Cc2ccccc2C1=O [Compound I-42, (S)-2-(1-oxoisoindolin-2-yl)-2-phenyl-N-(1,3,4-thiadiazol-2-yl)acetamide]",A (a % inhibition of about 75%)
17,"O=C(Nc1nc(CCCN2CCOCC2)cs1)[C@@H](c1ccccc1)N1Cc2ccccc2C1=O [Compound I-43, (R)-N-(4-(3-morpholinopropyl)thiazol-2-yl)-2-(1-oxoisoindolin-2-yl)-2-phenylacetamide]",A (a % inhibition of about 75%)
18,"O=C(Nc1ncc(CCCN2CCOCC2)s1)[C@@H](c1ccccc1)N1Cc2ccccc2C1=O [Compound I-44, (R)-N-(5-(3-morpholinopropyl)thiazol-2-yl)-2-(1-oxoisoindolin-2-yl)-2-phenylacetamide]",A (a % inhibition of about 75%)
19,"O=C(Nc1nccs1)[C@H](Cc1ccccc1)N1Cc2ccccc2C1=O [Compound I-45, (S)-2-(1-oxoisoindolin-2-yl)-3-phenyl-N-(thiazol-2-yl) propanamide]",A (a % inhibition of about 75%)
20,"O=C(Nc1nccs1)[C@@H](c1ccccc1)N1Cc2ccc(-c3cccs3)cc2C1=O [Compound I-46, (R)-2-(1-oxo-6-(thiophen-2-yl)isoindolin-2-yl)-2-phenyl-N-(thiazol-2-yl)acetamide]",B (a % inhibition of between about 50% to about 75%)
21,"O=C(Nc1nccs1)[C@@H](c1ccccc1)N1Cc2ccc(-c3ccsc3)cc2C1=O [Compound I-47, (R)-2-(1-oxo-6-(thiophen-3-yl)isoindolin-2-yl)-2-phenyl-N-(thiazol-2-yl)acetamide]",B (a % inhibition of between about 50% to about 75%)
22,"CCOC(=O)c1csc(NC(=O)[C@H](Cc2ccccc2)N2Cc3ccccc3C2=O)n1 [Compound I-48, ethyl (S)-2-(2-(1-oxoisoindolin-2-yl)-3-phenylpropanamido) thiazole-4-carboxylate]",A (a % inhibition of about 75%)
23,"O=C(Nc1ncc(Br)s1)[C@H](Cc1ccccc1)N1Cc2ccccc2C1=O [Compound I-49, (S)-N-(5-bromothiazol-2-yl)-2-(1-oxoisoindolin-2-yl)-3-phenylpropanamide]",A (a % inhibition of about 75%)
24,"O=C(Nc1nc(Br)cs1)[C@@H](Cc1ccccc1)N1Cc2ccccc2C1=O [Compound I-50, (R)-N-(4-bromothiazol-2-yl)-2-(1-oxoisoindolin-2-yl)-3-phenylpropanamide]",A (a % inhibition of about 75%)
25,"O=C(Nc1ccccc1)[C@@H](c1ccccc1)N1Cc2ccccc2C1=O [Compound I-51, (R)-2-(1-oxoisoindolin-2-yl)-N,2-diphenylacetamide]",A (a % inhibition of about 75%)
26,"O=C(Nc1ccccc1Cl)[C@@H](c1ccccc1)N1Cc2ccccc2C1=O [Compound I-52, (R)-N-(2-chlorophenyl)-2-(1-oxoisoindolin-2-yl)-2-phenylacetamide]",A (a % inhibition of about 75%)
27,"O=C(Nc1cc(F)ccc1F)[C@@H](c1ccccc1)N1Cc2ccccc2C1=O [Compound I-53, (R)-N-(2,5-difluorophenyl)-2-(1-oxoisoindolin-2-yl)-2-phenylacetamide]",A (a % inhibition of about 75%)
28,"Cc1cccc(C)c1NC(=O)[C@@H](c1ccccc1)N1Cc2ccccc2C1=O [Compound I-54, (R)-N-(2,6-dimethylphenyl)-2-(1-oxoisoindolin-2-yl)-2-phenylacetamide]",A (a % inhibition of about 75%)
29,"O=C(Nc1ccccc1F)[C@@H](c1ccccc1)N1Cc2ccccc2C1=O [Compound I-55, (R)-N-(2-fluorophenyl)-2-(1-oxoisoindolin-2-yl)-2-phenylacetamide]",B (a % inhibition of between about 50% to about 75%)
